The text below walks through data of BindingDB's records for patent US20230322822 (Chengdu Di''Ao Jiuhong Pharmaceutical Factory, 2023).

Experiment [1] deals with Epidermal growth factor receptor (Homo sapiens, UniProt P00533). Put plainly: EGFR kinase Enzymatic Activity Test 1. On the procedure: (§1) To assess the effect of compounds on the activity of wild-type and mutant EGFR kinases, kinase activity was tested by measuring ATP consumption in an enzymatic reaction using an ADP-Glo (Promega Corporation) kit. Samples to be tested were dissolved in DMSO and diluted in a gradient. In a microplate, an EGFR kinase, a reaction buffer (containing Tris-HCl with a pH of 7.5, MgCl2, DTT and BSA), a kinase substrate Poly(Glu4, Tyr1) and a sample (a total volume of 20 μL per well) were added per well, while a blank control (no enzyme and sample) and a negative control (no sample) were set up; incubated for 15 minutes at 23° C.; added with 5 μL of ATP, and reacted at 23° C. for 60 minutes; added with ADP-Glo Reagent, and continuously reacted for 40 minutes at room temperature to inactivate the redundant ATP; then, added with a Kinase Detection Reagent, and reacted at room temperature for 30 minutes, then the chemiluminescence intensity L of each well was measured. […] IC50 values were calculated according to the above calculation using 4Parameter Logistic Model in XLfit software.
Chain of Epidermal growth factor receptor (P00533 whole entry): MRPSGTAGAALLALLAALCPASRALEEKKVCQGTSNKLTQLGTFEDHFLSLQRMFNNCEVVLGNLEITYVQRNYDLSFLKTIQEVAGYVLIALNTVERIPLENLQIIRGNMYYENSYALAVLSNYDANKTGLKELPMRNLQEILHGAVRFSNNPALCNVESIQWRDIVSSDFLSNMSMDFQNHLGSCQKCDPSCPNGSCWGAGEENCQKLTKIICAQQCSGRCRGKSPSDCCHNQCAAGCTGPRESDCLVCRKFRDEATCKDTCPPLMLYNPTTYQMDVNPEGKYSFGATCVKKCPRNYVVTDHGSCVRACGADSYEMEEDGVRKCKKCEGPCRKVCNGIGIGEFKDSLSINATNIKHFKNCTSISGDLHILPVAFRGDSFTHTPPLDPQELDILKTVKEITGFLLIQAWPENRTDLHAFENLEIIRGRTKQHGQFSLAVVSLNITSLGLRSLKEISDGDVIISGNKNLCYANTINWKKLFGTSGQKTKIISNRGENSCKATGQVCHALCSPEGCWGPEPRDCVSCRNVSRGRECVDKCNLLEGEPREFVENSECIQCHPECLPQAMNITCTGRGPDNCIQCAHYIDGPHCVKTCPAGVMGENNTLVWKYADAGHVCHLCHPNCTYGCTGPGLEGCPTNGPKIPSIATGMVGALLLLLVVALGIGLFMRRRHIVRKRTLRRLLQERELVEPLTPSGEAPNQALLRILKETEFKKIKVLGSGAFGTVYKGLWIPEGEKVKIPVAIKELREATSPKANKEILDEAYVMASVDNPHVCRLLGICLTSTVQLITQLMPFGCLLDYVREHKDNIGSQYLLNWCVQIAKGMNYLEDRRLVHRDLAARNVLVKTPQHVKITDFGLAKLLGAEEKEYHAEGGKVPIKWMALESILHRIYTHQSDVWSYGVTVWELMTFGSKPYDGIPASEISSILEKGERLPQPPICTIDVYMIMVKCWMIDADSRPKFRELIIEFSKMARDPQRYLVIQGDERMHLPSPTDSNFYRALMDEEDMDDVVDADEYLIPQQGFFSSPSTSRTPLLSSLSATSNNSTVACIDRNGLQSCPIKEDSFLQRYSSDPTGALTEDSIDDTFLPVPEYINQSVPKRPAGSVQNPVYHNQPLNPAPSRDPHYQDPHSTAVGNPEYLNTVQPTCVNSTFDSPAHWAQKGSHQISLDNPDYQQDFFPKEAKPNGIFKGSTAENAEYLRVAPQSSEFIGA

The target of experiment [2] is Epidermal growth factor receptor [T790M,L858R] (Homo sapiens, UniProt P00533, L858R/T790M). Put plainly: EGFR kinase Enzymatic Activity Test 1. On the procedure: as §1
Chain of Epidermal growth factor receptor [T790M,L858R] (P00533 25-1210 T790M/L858R limits assumed): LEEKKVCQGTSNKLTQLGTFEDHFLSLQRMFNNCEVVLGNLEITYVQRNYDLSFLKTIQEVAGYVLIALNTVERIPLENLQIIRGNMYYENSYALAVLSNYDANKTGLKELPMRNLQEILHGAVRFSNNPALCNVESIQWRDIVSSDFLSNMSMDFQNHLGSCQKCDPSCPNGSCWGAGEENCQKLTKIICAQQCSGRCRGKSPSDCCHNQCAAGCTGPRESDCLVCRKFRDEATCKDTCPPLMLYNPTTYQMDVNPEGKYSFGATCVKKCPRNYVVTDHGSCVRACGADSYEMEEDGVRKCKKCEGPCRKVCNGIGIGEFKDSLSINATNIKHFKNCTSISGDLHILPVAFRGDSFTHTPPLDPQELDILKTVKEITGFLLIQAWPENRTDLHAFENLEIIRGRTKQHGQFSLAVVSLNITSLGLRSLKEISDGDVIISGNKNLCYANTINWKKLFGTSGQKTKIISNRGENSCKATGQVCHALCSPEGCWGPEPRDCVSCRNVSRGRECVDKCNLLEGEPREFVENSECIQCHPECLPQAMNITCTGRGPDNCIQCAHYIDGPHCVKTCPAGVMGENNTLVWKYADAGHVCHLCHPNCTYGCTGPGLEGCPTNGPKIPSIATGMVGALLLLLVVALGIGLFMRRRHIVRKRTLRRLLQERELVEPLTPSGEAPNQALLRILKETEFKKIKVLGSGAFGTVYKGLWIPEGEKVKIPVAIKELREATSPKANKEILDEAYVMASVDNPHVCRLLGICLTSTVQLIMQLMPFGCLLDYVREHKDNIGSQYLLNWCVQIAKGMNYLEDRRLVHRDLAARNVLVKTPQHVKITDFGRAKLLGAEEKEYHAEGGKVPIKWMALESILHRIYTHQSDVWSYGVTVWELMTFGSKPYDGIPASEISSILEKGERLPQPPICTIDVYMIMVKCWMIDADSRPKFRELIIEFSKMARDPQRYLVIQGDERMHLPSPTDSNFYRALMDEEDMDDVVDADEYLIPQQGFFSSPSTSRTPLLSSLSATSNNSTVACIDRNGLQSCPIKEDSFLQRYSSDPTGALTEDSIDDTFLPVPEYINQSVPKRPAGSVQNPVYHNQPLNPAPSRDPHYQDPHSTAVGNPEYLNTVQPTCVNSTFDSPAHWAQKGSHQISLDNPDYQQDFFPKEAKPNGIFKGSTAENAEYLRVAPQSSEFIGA

`COc1cc(N2CCC(N3CCN(C)CC3)CC2)c(C)cc1Nc1ncc(Br)c(Nc2ccc(C)cc2P(C)(C)=O)n1` [US20230322822, Compound 2]: the IC50 in experiment [1] is 169 nM; in experiment [2], 24.8 nM.

As a reminder, the IC50 is the concentration at which inhibition is half-maximal. Read a low IC50 as greater potency.
